Source: patent US20250302983A1, “Saponin Conjugates” (priority 2018, published 2025)

Columns and labels:
HeLa cells = assay: HeLa cell viability assay (MTS): SO1861 + dianthin-EGF with PAMAM, PAMAM-conjugates, G4-dendron or chloroquine; format: cell-based, human; details: positive control
From the text: Whether or not a first proteinaceous molecule comprising saponins, either or not further comprising one or more (cleavable) linkers and/or optionally a scaffold, is able to disturb the acidic environment and […] the endosomal escape function of the at least one glycoside (saponin) can be easily determined with an assay as described in Example 3 and as known in the art. The inhibition is described as “fold amount increases of glycoside necessary to induced 50% cell killing”. […] The fold increase is to be measured in assay, essentially as described in Example 4, wherein Chloroquine, as a positive control, induces a 2-fold increase in glycoside amount, preferably saponin amount wherein the saponin is any one or more of the saponins of the invention (see Table A1, Scheme I, previous embodiments) to observe 50% cell killing.
HeLa cells were seeded in DMEM (PAN-Biotech GmbH) supplemented with 10% fetal bovine serum (PAN-Biotech GmbH) and 1% penicillin/streptomycin (PAN-Biotech GmbH), in a 96 well plate at 5,000 c/w in 100 μL/well and incubated overnight at 37° C. and 5% CO2. The next day 20× concentrated stocks of the PAMAM, PAMAM-conjugates, G4-dendron (prepared in Example 3) or chloroquine (Sigma Aldrich) samples were prepared in DMEM. […]

[1] = test system: SK-BR-3, JIMT-1, MDA-MB-468, A431, CaSki, HeLa, A2058; assay: control treatments, relative cell viability on various cancer cell lines (FIG. 12); format: cell-based, human; details: wide range of concentrations toxin tested, up to 100.000 pM

| Compound | fold increase in glycoside (saponin) amount to observe 50% cell killing (HeLa cells) | influence on cell viability [1] |
| --- | --- | --- |
| CCN(CC)CCCC(C)Nc1ccnc2cc(Cl)ccc12 (centres unmarked) [Chloroquine] | 2 fold | – |
| saporin | – | do not or hardly have any influence on cell viability |
